From patent US10195187B2, “Oxybutynin-xanomeline transdermal therapeutic system combinations” (Chase Pharmaceuticals Corporation, priority 2015, dated 2019)

Columns and labels:
muscarinic receptors = conditions: oral and iontophoretic patch administration; cited from earlier work
Male Swiss mice [1] = assay: Antagonism of xanomeline-induced diarrhea in mice by oxybutynin (fecal pellet count); assay type: in vivo, mouse; conditions: oxybutynin i.p. 0.3 to 30 mg/kg, 30 min before xanomeline 30 mg/kg
Procedure: The total number of fecal pellets for each mouse was counted over time. An analysis of variance (ANOVA) was performed on the results. Fisher's Protected Least Significant Difference was used for pairwise comparisons; p values≤0.05 were considered significant. Grubbs' test (http (hypertext transfer protocol) www at graphpad.com/quickcalcs/Grubbs1.cfm) was used to detect outliers for each parameter in each experimental group. […] Mice were placed individually in cages without any bedding materials. During the experiment the number of fecal pellets was counted at different time-points as outlined below:
T0: administration of oxybutinin.
T30 min: administration of vehicle or xanomeline.
T 30 min to T 2.5 h: counting of accumulated fecal pellets excreted.
T+2.5 h to T+4.5 h: counting of accumulated fecal pellets excreted.
The total number of fecal pellets for each mouse was counted over time. An analysis of variance (ANOVA) was performed on the results. Fisher's Protected Least Significant Difference was used for pairwise comparisons. The p value≤0.05 were considered significant. Grubbs' test (http (hypertext transfer protocol) www at graphpad.com/quickcalcs/Gnibbs1.cfm) was used to detect outliers for each parameter in each experimental group.

Male Swiss mice [2] = assay: T-maze continuous alternation task (T-CAT) in mice; assay type: in vivo, mouse
Source text: Evaluation of Cognition with Oxybutynin and Xanomeline in the T-maze Alternation Task in Mice
The T-maze continuous alternation task (T-CAT) is useful as model for studying compounds with cognitive enhancing properties. The T-maze consists of 2 choice arms and 1 start arm mounted to a square center. Manual doors are provided to close specific arms during the force choice alternation task. Male Swiss mice (4-6 weeks old), N=10 per treatment group were used, and were pre-treated with:
Thirty minutes later mice were treated with either vehicle or one of 4 doses of xanomeline:
a dose that caused diarrhea.
Mice were randomly assigned to one of the different experimental treatment groups. Each animal was identified by its group name, cage number, series (day) of experiment, and number (1 to 10) written with permanent ink on the tail.
The T-maze apparatus is made of gray Plexiglas with a main stem (55 cm long×10 cm wide×20 cm high) and two arms (30 cm long×10 cm wide×20 cm high) positioned at 90 degree angle relative to the main stem. A start box (15 cm long×10 cm wide) is separated from the main stem by a guillotine door. Horizontal doors are also provided to close specific arms during the force choice alternation task. The experimental protocol consisted of one single session, which started with 1 “forced-choice” trial, followed by 14 “free-choice” trials. In the first “forced-choice” trial, animals were confined for 5 seconds to the start arm and then were released while either the left or the right goal arm was blocked by the horizontal door. Animals then negotiated the maze, eventually entering the open goal arm, and returned to the start position. […] The percentage of alternation over the 14 free-choice trials was determined for each mouse and was used as an index of working memory performance. […] The drug-induced improvement of memory was calculated by setting the respective response of the saline/vehicle as 100% and that of the test group as 0% reversion. […]

[3] = McCrery and Appell 2006; cited from earlier work
Male Swiss mice [4] = assay: Dose-response to xanomeline in a mouse model of diarrhea (fecal pellet count); assay type: in vivo; conditions: xanomeline i.p. 0.3 to 30 mg/kg
Source text: Study 1—Establishment of the Dose-Response to Xanomeline in a Mouse Model of Diarrhea.
Male Swiss mice (4-6 weeks old), N=10 per treatment group were used, and treated intra-peritoneally (i.p.) with either vehicle (vehicle group) or increasing doses of xanomeline, a representative muscarinic agonist. Mice were randomly assigned to one of two experimental groups (vehicle; or increasing doses of xanomeline). Each animal was identified by its group name, cage number, series (day) of experiment, and number (1 to 10) written with permanent ink on the tail. Mice were placed individually in cages without any bedding materials. During the experiment the number of fecal pellets were counted at different time-points, starting one hour before the time of the administration of the test compound (T0), as outlined below:
T−1 h to T0: counting of the accumulated fecal pellets excreted.
T0: administration of the test compound.
T0 to T+2 h: counting of the accumulated fecal pellets excreted.
T+2 h to T+4 h: counting of the accumulated fecal pellets excreted.
The total number of fecal pellets for each mouse was counted over time. An analysis of variance (ANOVA) was performed on the results. […] During the experiment the number of fecal pellets was counted at different time-points as outlined below: […]

[5] = tested on: patients with Alzheimer disease; conditions: cited from earlier work

In the case of `NC(=O)C(c1ccccc1)(c1ccccc1)[C@@H]1CCN(CCc2ccc3c(c2)CCO3)C1` [darifenacin], the “effectiveness relative to other muscarinic antagonists in combination with muscarinic agonists” value (muscarinic receptors) is listed as “less effective than the other muscarinic antagonists”.

For `CCN(CC)CC#CCOC(=O)C(O)(c1ccccc1)C1CCCCC1` (stereo not shown) [oxybutynin, 4-diethylaminobut-2-ynyl 2-cyclohexyl-2-hydroxy-2-phenylethanoate], the “antagonism of xanomeline-induced diarrhea (fecal pellets)” value (Male Swiss mice [1]) is given as “dose-dependently antagonized the diarrhea induced by xanomeline”, the “ability to perform the T-maze test after oxybutynin pretreatment” value (Male Swiss mice [2]; i.p. oxybutynin 30 min before xanomeline) is given as “restored the animals' ability to perform the T-maze test” and the “crossing of the blood brain barrier” value [3] is given as “able to cross the blood brain barrier”.

With `CCCCCCOc1nsnc1C1=CCCN(C)C1` [xanomeline, 3-[4-(Hexyloxy)-1,2,5-thiadiazol-3-yl]-1,2,5,6-tetrahydro-1-methylpyridine] the “diarrhea (number of fecal pellets excreted)” value (Male Swiss mice [4]) was “dose-dependently causes diarrhea”, the “ability to perform the T-maze test at the higher dose” value (Male Swiss mice [2]; i.p. xanomeline, higher dose (dose that caused diarrhea)) was “animals were too sick to perform the test” and the “performance in the T-maze (percentage of alternation)” value (Male Swiss mice [2]; i.p. xanomeline, mice) was “dose-dependent increase in performance in the T-maze”. For the same compound, the “cognitive and behavioral symptoms of Alzheimer disease compared to placebo” value ([5]; 6-month trial, Bodick et al, 1997) was “significantly improve cognitive and behavioral symptoms of Alzheimer disease”, the discontinuation rate ([5]; Alzheimer's patient population, Mirza et al. 2003) was “higher than 50%” and the side effects ([5]; patients with Alzheimer disease, Bodick et al, 1997) was “dose-dependent unacceptable side effects, including bradycardia, gastro-intestinal distress, excessive salivation, and sweating”.
